Data set [1] in a line: Absorption of methanol solutions of the dyes (λmax and density at 400, 450, 500 nm). It counts as physicochemical. The note with it: for D400: density measured at 400 nm; for D400 / D450 / D500: methanol solution with density 0.6 at λmax; for D450: density measured at 450 nm; for D500: density measured at 500 nm; for λmax (nm): methanol solution, density 0.6 at λmax; for spectral region absorbed (in words): methanol solutions, from the data of Table 1.

Data set [2] in a line: Solubility in tricresylphosphate and crystallization tendency on cooling. It counts as physicochemical. The note with it: for Not-to-Crystallize Tendency: tricresylphosphate solution cooled at room temperature; for Solubility: in tricresylphosphate, under stirring at 60° C. The procedure: The compounds shown in Table 2 were added with a quantity of tricresylphosphate under stirring at 60° C. up to obtain a limpid solution. The samples were then cooled at room temperature and the crystallization tendency thereof was evaluated.

Consider `C=CCn1cccc1/C=C1\C(=O)ON=C1C(C)(C)C` [Compound I-6], for which, in data set [1], the D400 was 0.52, the D450 was 0.17, the D500 is 0.00 and the “λmax (nm)” value was found to be 415 nm.

Regarding `CCCCS(=O)(=O)Nc1ccc(C2=NOC(=O)/C2=C\C2CN(CCC(=O)OCC)c3ccccc32)cc1` (centres unmarked) [D], in data set [1], the D400 turned out to be 0.35, the D450 came out at 0.00, the D500 is 0.00 and the “λmax (nm)” value amounted to 374 nm. Besides, in data set [1] (listed as Sample 12), the “spectral region absorbed (in words)” value is “mainly absorb in the ultraviolet”.

Regarding `CCCCS(=O)(=O)Nc1ccc(C2=NOC(=O)/C2=C\C2CN(CCC(=O)OCC)c3ccccc32)cc1` (single isomer, unassigned) [B], in data set [1], the D400 is recorded as 0.09, the D450 is recorded as 0.53, the D500 is 0.10 and the “λmax (nm)” value amounted to 463 nm. The “spectral region absorbed (in words)” value in data set [1] is on record as “mainly absorb in the blue region, but that the green region (500-600 nm) is also interested”.

On to `COc1ccc(C2=NOC(=O)/C2=C\c2ccc[nH]2)cc1` [Compound I-3], for which, in data set [1], the D400 is given as 0.48, the D450 is 0.08, the D500 is 0.00 and the “λmax (nm)” value is listed as 418 nm.

Turning to `CCOC(=O)Cn1cccc1/C=C1\C(=O)ON=C1c1ccc(OC)cc1` [Compound I-5], in data set [1], the D400 amounted to 0.47, the D450 was 0.21, the D500 is 0.00 and the “λmax (nm)” value amounted to 419 nm.

As for `CCCCS(=O)(=O)Nc1ccc(C2=NOC(=O)/C2=C\c2cccn2C(CC)C(=O)OCCOCC)cc1` (centres unmarked) [Compound I-7], in data set [1], the D400 was found to be 0.42, the D450 came out at 0.03, the D500 amounted to 0.00 and the “λmax (nm)” value is reported as 423 nm. Besides, the “Not-to-Crystallize Tendency” value in data set [2] was “good”. In addition, in data set [2] (listed as Sample 7), the “Not-to-Crystallize Tendency” value is “do not exhibit any tendency to crystallize”.

For the molecule `CCCCS(=O)(=O)Nc1ccc(C2=NOC(=O)/C2=C\C2CN(CCC(=O)OCC)c3ccccc32)cc1` (centres unmarked) [Compound G], in data set [1], the D400 worked out at 0.27, the D450 came out at 0.55, the D500 stood at 0.00 and the “λmax (nm)” value worked out at 438 nm. Also, in data set [2], the Solubility entry is “good” and the “Not-to-Crystallize Tendency” value is listed as “not good”.

As to `CCCCS(=O)(=O)Nc1ccc(C2=NOC(=O)/C2=C\C2CN(CCC(=O)OCC)c3ccccc32)cc1` (centres unmarked) [C], in data set [1], the D400 turned out to be 0.45, the D450 was 0.03, the D500 was determined as 0.00 and the “λmax (nm)” value came out at 377 nm. Further, the “spectral region absorbed (in words)” value in data set [1] (listed as Sample 11) is on record as “mainly absorb in the ultraviolet”.

In the case of `CCOC(=O)CCn1cccc1/C=C1\C(=O)ON=C1c1ccc(OC)cc1` [Compound I-4], in data set [1], the D400 came to 0.44, the D450 was 0.22, the D500 worked out at 0.00 and the “λmax (nm)” value turned out to be 420 nm.

For `C=CCn1cccc1/C=C1\C(=O)ON=C1c1ccc(NS(=O)(=O)CCCC)cc1` [Compound I-2], in data set [1], the D400 worked out at 0.41, the D450 came to 0.24, the D500 was 0.00 and the “λmax (nm)” value stood at 421 nm.

`CCCCS(=O)(=O)Nc1ccc(C2=NOC(=O)/C2=C\C2CN(CCC(=O)OCC)c3ccccc32)cc1` (centres unmarked) [F]: in data set [1], the D400 was 0.28, the D450 was 0.54, the D500 came to 0.00 and the “λmax (nm)” value amounted to 437 nm. For the same molecule, in data set [2], the Solubility entry is reported as “good” and the “Not-to-Crystallize Tendency” value was “not good”.

Consider `CCCCS(=O)(=O)Nc1ccc(C2=NOC(=O)/C2=C\C2CN(CCC(=O)OCC)c3ccccc32)cc1` (centres unmarked) [E], for which, in data set [1], the D400 came out at 0.26, the D450 is reported as 0.50, the D500 is on record as 0.00 and the “λmax (nm)” value amounted to 437 nm. Moreover, in data set [2], the Solubility result is “good” and the “Not-to-Crystallize Tendency” value is given as “not good”.

(Values after patent US6518005B2, “Silver halide multilayer color photographic material” (Ferrania, S.p.A., priority 2000, dated 2003).)
